Reference: patent US6833478B2 (priority 2001, dated 2004)
Structures can show the parent of a compound that is named as a salt.

Experiment: Volume of water needed to dissolve
Assay type: physicochemical
Settings: 1 mmole (782 mg)
Source text: Evidently, dinitramide ion quenches the fluorescence of protonated quinine.

## C=C[C@H]1C[N@@]2CC[C@H]1C[C@H]2[C@H](O)c1ccnc2ccc(OC)cc12 [quinine sulfate]
  water required to dissolve: 900 mL
